Assay results as given in patent publication EP1586565A1, “Substituted polycyclic aryl and heteroaryl pyrazinones useful for selective inhibition of the coagulation cascade” (Pharmacia Corporation, priority 1999, dated 2000).

biological target: T1, Human factor Xa (Homo sapiens, UniProt P00742); experiment: Xa Assay; format: biochemical; details: % inhibition at 30 µM (cells with % or %@30, bare 0)
T1 construct: leads from XII to XIIa to XIa to IXa and to the conversion of X to Xa; purchased Enzyme Research Laboratories, South Bend IN
T1 sequence (P00742 235-488 limits assumed): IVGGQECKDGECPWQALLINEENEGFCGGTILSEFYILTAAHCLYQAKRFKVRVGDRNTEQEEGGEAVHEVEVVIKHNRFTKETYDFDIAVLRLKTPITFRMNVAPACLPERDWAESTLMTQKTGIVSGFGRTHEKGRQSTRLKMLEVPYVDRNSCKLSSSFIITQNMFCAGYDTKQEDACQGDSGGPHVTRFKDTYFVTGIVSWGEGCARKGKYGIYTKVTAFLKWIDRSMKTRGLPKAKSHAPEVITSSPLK
T1 sequence (P00742 41-179 limits assumed): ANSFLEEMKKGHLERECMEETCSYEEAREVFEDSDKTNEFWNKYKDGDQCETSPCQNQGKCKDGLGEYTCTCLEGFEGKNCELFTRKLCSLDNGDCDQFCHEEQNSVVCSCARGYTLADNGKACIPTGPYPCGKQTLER

SMILES | IC50 or % Inhibition Factor Xa (30 µM) [%]
N=C(N)c1ccc(CNC(=O)Cn2c(-c3ccccc3)c(Cl)nc(NCc3cc(Cl)ccc3Cl)c2=O)cc1 [1512-35] | 4
N=C(N)c1ccc(CNC(=O)Cn2c(-c3ccccc3)c(Cl)nc(NCCc3cccc(C(F)(F)F)c3)c2=O)cc1 [1512-41] | 4
N=C(N)c1ccc(CNC(=O)Cn2c(-c3ccccc3)c(Cl)nc(NCc3ccccc3OC(F)(F)F)c2=O)cc1 [1512-42] | 1
N=C(N)c1ccc(CNC(=O)Cn2c(-c3ccccc3)c(Cl)nc(NCCc3ccccn3)c2=O)cc1 [1512-47] | 13
C[C@@H](C(=O)NCc1ccc(C(=N)N)cc1)n1c(-c2ccccc2)c(Cl)nc(NCc2ccccc2)c1=O [1517-03] | 0
CSCC(C(=O)NCc1ccc(C(=N)N)cc1)n1c(-c2ccccc2)c(Cl)nc(NCc2ccccc2)c1=O (centres unmarked) [1517-04] | 0
N=C(N)c1ccc(CNC(=O)Cn2c(-c3c(Cl)cccc3Cl)c(Cl)nc(NCc3ccccc3)c2=O)cc1 [1517-06] | 0
N=C(N)c1ccc(CNC(=O)Cn2c(-c3ccsc3)c(Cl)nc(NC3CCC3)c2=O)cc1 [1517-07] | 0
C[C@@H](C(=O)NCc1ccc(C(=N)N)cc1)n1c(-c2ccccc2)c(Cl)nc(NC2CCC2)c1=O [1517-09] | 0
CSCC(C(=O)NCc1ccc(C(=N)N)cc1)n1c(-c2ccccc2)c(Cl)nc(NC2CCC2)c1=O (centres unmarked) [1517-10] | 0
C[C@H](C(=O)NCc1ccc(C(=N)N)cc1)n1c(-c2ccccc2)c(Cl)nc(NC2CCC2)c1=O [1517-11] | 0
C[C@@H](C(=O)NCc1ccc(C(=N)N)cc1)n1c(-c2ccccc2)c(Cl)nc(NCCc2ccccc2)c1=O [1517-15] | 0

The next lines start with the values.

IC50 or % Inhibition Factor Xa (30 µM) [%] | SMILES
5 | N=C(N)c1ccc(CNC(=O)Cn2c(-c3ccccc3)c(Cl)nc(NCc3cc(F)c(F)c(F)c3)c2=O)cc1 [1512-32]
9 | N=C(N)c1ccc(CNC(=O)Cn2c(-c3ccccc3)c(Cl)nc(NCc3cc(F)ccc3F)c2=O)cc1 [1512-36]
4 | N=C(N)c1ccc(CNC(=O)Cn2c(-c3ccccc3)c(Cl)nc(NCc3cc(F)cc(F)c3)c2=O)cc1 [1512-39]
9 | N=C(N)c1ccc(CNC(=O)Cn2c(-c3ccccc3)c(Cl)nc(NCc3c(F)cccc3F)c2=O)cc1 [1512-43]
10 | CN1CCCC1CCNc1nc(Cl)c(-c2ccccc2)n(CC(=O)NCc2ccc(C(=N)N)cc2)c1=O (centres unmarked) [1512-46]
0 | N=C(N)c1ccc(CNC(=O)Cn2c(-c3ccsc3)c(Cl)nc(NCc3ccccc3)c2=O)cc1 [1517-01]
0 | C[C@H](C(=O)NCc1ccc(C(=N)N)cc1)n1c(-c2ccccc2)c(Cl)nc(NCc2ccccc2)c1=O [1517-05]
0 | N=C(N)c1ccc(CNC(=O)Cn2c(-c3c(Cl)cccc3Cl)c(Cl)nc(NC3CCC3)c2=O)cc1 [1517-12]
0 | N=C(N)c1ccc(CNC(=O)Cn2c(-c3ccsc3)c(Cl)nc(NCCc3ccccc3)c2=O)cc1 [1517-13]
0 | CSCC(C(=O)NCc1ccc(C(=N)N)cc1)n1c(-c2ccccc2)c(Cl)nc(NCCc2ccccc2)c1=O (centres unmarked) [1517-16]
0 | C[C@H](C(=O)NCc1ccc(C(=N)N)cc1)n1c(-c2ccccc2)c(Cl)nc(NCCc2ccccc2)c1=O [1517-17]
0 | N=C(N)c1ccc(CNC(=O)Cn2c(-c3c(Cl)cccc3Cl)c(Cl)nc(NCCc3ccccc3)c2=O)cc1 [1517-18]
0 | N=C(N)c1ccc(CNC(=O)Cn2c(-c3ccsc3)c(Cl)nc(NCCc3cccc(Cl)c3)c2=O)cc1 [1517-19]
0 | C[C@H](C(=O)NCc1ccc(C(=N)N)cc1)n1c(-c2ccccc2)c(Cl)nc(NCCc2cccc(Cl)c2)c1=O [1517-23]
